Measurements as given in patent US20180312473A1, “PHENAZINE DERIVATIVES AS ANTIMICROBIAL AGENTS” (priority 2015, published 2018).
≈ marks a conversion by molar mass, not a printed value. Read-outs that look alike come from different tables or passages of the source. Marks after values point to notes of the source that are not given here.

Legend:
[1] = tested on: Staphylococcus epidermidis (ATCC 12228); test: MIC assay (broth microdilution, CLSI); format: cell-based; settings: Staphylococcus epidermidis, ATCC12228
[2] = tested on: MRSA-2 (methicillin-resistant Staphylococcus aureus clinical isolate); test: MIC assay (broth microdilution, CLSI); format: cell-based; settings: Staphylococcus aureus, MRSA, read-out: MIC, MRSA-2
[3] = tested on: MRSA-2 planktonic cells and biofilms; test: Calgary Biofilm Device (CBD) assay, MBC/MBEC; format: cell-based, Staphylococcus aureus; settings: for MBC: Staphylococcus aureus, MRSA
human red blood cells = test: Hemolysis assay with red blood cells; settings: human, 1 h, 200 μM, pH 7.2
Experimental: The hemolysis activities of select compounds of the invention were determined. […] The washing was repeated three times with the buffer. In 96-well plate, test compounds were added to the buffer from DMSO stocks. […] The plate was then incubated for 1 hour at 37° C. After incubation, the plate was centrifuged for 5 minutes at 3,500 rpm. Then 80 μL of the supernatant was transferred to another 96-well plate, and the optical density (OD) was read at 405 nm. DMSO served as the negative control (0% hemolysis), while Triton X served as the positive control (100% hemolysis). The percent of hemolysis was calculated as (OD405 of the compound−OD405 of DMSO)/(OD405 of Triton X−OD405 of the buffer).
The washing was repeated three times with the buffer. In 96-well plate, test compounds were added to the buffer from DMSO stocks. […] The plate was then incubated for 1 hour at 37° C. After incubation, the plate was centrifuged for 5 minutes at 3,500 rpm. Then 80 μL of the supernatant was transferred to another 96-well plate and the optical density (OD) was read at 405 nm. DMSO served as our negative control (0% hemolysis) while Triton X served as our positive control (100% hemolysis). The percent of hemolysis was calculated as (OD405 of the test compound−OD405 DMSO)/(OD405 Triton X−OD405 buffer) from three independent experiments.

[4] = tested on: Staphylococcus epidermidis (ATCC 35984), MRSE; test: MIC assay (broth microdilution, CLSI); format: cell-based; settings: for MIC: Staphylococcus epidermidis
MRSA BAA-1707 = test: MIC assay (broth microdilution, CLSI); settings: Staphylococcus aureus, read-out: MIC, MRSA BAA-1707
MRSA BAA-44 = test: MIC assay (broth microdilution, CLSI); settings: Staphylococcus aureus, read-out: MIC, MRSA BAA-44
[5] = tested on: Enterococcus faecium (ATCC 700221), VRE; test: MIC assay (broth microdilution, CLSI); format: cell-based
HeLa cells = test: in vitro; format: cell-based; settings: human, 24 h
Experimental: (§1) The cytotoxicities of select compounds of the invention against HeLa cells were determined. HeLa cytotoxicity was assessed using the LDH release assay described by CYTOTOX96 (Promega G1780). HeLa cells were grown in Dulbecco's Modified Eagle Medium (DMEM; Gibco) supplemented with 10% Fetal Bovine Serum (FBS) at 37° C. with 5% CO2. […] Triton X-100 (at 2% v/v) was used as the positive control for maximum lactate dehydrogenate (LDH) activity in this assay (e.g., complete cell death), while “medium only” lanes served as negative control lanes (e.g., no cell death). DMSO was used as the vehicle control. […] Finally, Stop Solution (50 μL) was added to the incubating plates, and the absorbance was measured at 490 nm.
(§2) HeLa cytotoxicity was assessed using the LDH release assay described by CYTOTOX96 (Promega G1780). HeLa cells were grown in Dulbecco's Modified Eagle Medium (DMEM; Gibco) supplemented with 10% Fetal Bovine Serum (FBS) at 37° C. with 5% CO2. […] Triton X-100 (at 2% v/v) was used as the positive control for maximum lactate dehydrogenate (LDH) activity in this assay (e.g., complete cell death), while “medium only” lanes served as negative control lanes (e.g., no cell death). DMSO was used as our vehicle control. […] Finally, Stop Solution (50 μL) was added to the incubating plates and the absorbance was measured at 490 nm. Results are from three independent experiments (FIG. 19)

in vitro = format: cell-based; settings: human
Experimental: as §1, §2

[6] = tested on: MRSA-1 (methicillin-resistant Staphylococcus aureus clinical isolate); test: MIC assay (broth microdilution, CLSI); format: cell-based; settings: Staphylococcus aureus, MRSA, Table 2A; read-out: MIC, MRSA-1
[7] = tested on: MRSE (S. epidermidis ATCC 35984) planktonic cells and biofilms; test: Calgary Biofilm Device (CBD) assay, MBC/MBEC; format: cell-based, Staphylococcus epidermidis; settings: for MBC: Staphylococcus epidermidis
MRSA-2 = test: MIC assay with Tiron or metal(II) cation co-treatment; format: cell-based, Staphylococcus aureus; settings: Staphylococcus aureus
S. epidermidis 12228 = test: as above; format: cell-based, Staphylococcus epidermidis; settings: Staphylococcus epidermidis
E. faecium 700221 (VRE) = test: as above; format: cell-based, Enterococcus faecium; settings: Enterococcus faecium, VRE
K. pneumoniae 13883 = test: MIC assay (broth microdilution, CLSI); format: cell-based, Klebsiella pneumoniae; settings: Klebsiella pneumoniae, 13883; read-out: K. pneumoniae 13883 MIC
E. coli UAEC-1 = test: MIC assay (broth microdilution, CLSI); format: cell-based; settings: Escherichia coli, UAEC1; read-out: E. coli UAEC-1 MIC
P. aeruginosa (PAO1) = test: MIC assay (broth microdilution, CLSI); format: cell-based; settings: Pseudomonas aeruginosa, PAO1; read-out: PAO1 MIC
A. baumannii 19606 = test: MIC assay (broth microdilution, CLSI); format: cell-based, Acinetobacter baumannii; settings: Acinetobacter baumannii, 19606; read-out: A. baumannii 19606 MIC
[8] = Table 2A, read-out: MIC, Staphylococcus epidermidis (ATCC 12228)
[9] = Table 7, b lowest concentration tested, read-out: MIC, S. epidermidis 12228
[10] = Table 7, a midpoint of 2-fold range, b lowest concentration tested
[11] = Table 8, a/b 2-/4-fold range in independent experiments, read-out: MRSA-2 MBC
[12] = Table 2A, read-out: MIC, Staphylococcus epidermidis (ATCC 35984)
[13] = Table 7, read-out: MIC, MRSE 35984
[14] = Enterococcus faecium, Table 2A, read-out: MIC, Enterococcus faecium (ATCC 700221)
[15] = Table 7, b lowest concentration tested, read-out: MIC, VRE 700221

SMILES	MIC [1, 8]	MIC [1, 9]	MIC ([2]; Table 2A)	MIC [2, 10]	MBC ([3]; Table 4, read-out: MBC, MRSA-2)	MBC [3, 11]	% Hemolysis (200 μM) (human red blood cells)	MIC [4, 12]	MIC [4, 13]	MIC (MRSA BAA-1707)	melting point	MIC (MRSA BAA-44)	MIC [5, 14]	MIC [5, 15]	IC50 at 24 h (in vitro)	% Hemolysis at 200 μM (human red blood cells)	MIC (K. pneumoniae 13883)	MIC (E. coli UAEC-1)	MIC (P. aeruginosa (PAO1))	MIC (A. baumannii 19606)	other results
Oc1c(Cl)cc(I)c2nc3ccccc3nc12 [Compound 6, 2-Chloro-4-iodo-1-hydroxyphenazine]	1.56 µM (≈ 0.556 µg/mL)	1.56 µM (≈ 0.556 µg/mL)	1.56 µM (≈ 0.556 µg/mL)	1.56 µM (≈ 0.556 µg/mL)	15.6 µM (≈ 5.56 µg/mL)	15.6 µM (≈ 5.56 µg/mL)	5.1%	1.56 µM (≈ 0.556 µg/mL)	1.56 µM (≈ 0.556 µg/mL)	1.56 µM (≈ 0.556 µg/mL)	183 to 185 °C	1.56 µM (≈ 0.556 µg/mL)	6.25 µM (≈ 2.23 µg/mL)	6.25 µM (≈ 2.23 µg/mL)	> 100 µM	–	–	–	–	–	MBEC:MBC ratio, MRSA-2 ([3]; Table 4): 8.0; IC50 (HeLa cells): > 100 µM; MIC [6]: 1.56 µM (≈ 0.556 µg/mL)
Oc1c(Cl)cc(Br)c2nc3cc(Br)c(Br)cc3nc12 [Compound 15, 4,7,8-Tribromo-2-chloro-1-hydroxyphenazine]	0.05 to 0.1 µM (≈ 0.0234 to 0.0467 µg/mL)	0.08 µM (≈ 0.0374 µg/mL)	12.5 µM (≈ 5.84 µg/mL)	12.5 µM (≈ 5.84 µg/mL)	25 µM (≈ 11.7 µg/mL)	25 µM (≈ 11.7 µg/mL)	2.1%	0.2 to 0.39 µM (≈ 0.0935 to 0.182 µg/mL)	0.3 to 0.59 µM (≈ 0.14 to 0.276 µg/mL)	–	242 to 244 °C	25 µM (≈ 11.7 µg/mL)	0.39 µM (≈ 0.182 µg/mL)	0.39 µM (≈ 0.182 µg/mL)	> 100 µM	2.1%	–	–	–	–	MBC ([7]; Table 4, read-out: MBC, Staphylococcus epidermidis (ATCC 35984)): 1.56 µM (≈ 0.729 µg/mL); MBC ([7]; Table 8, read-out: MRSE 35984 MBC): 1.56 µM (≈ 0.729 µg/mL); MBEC, Staphylococcus epidermidis (ATCC 35984) ([7]; Table 4): 3.13 µM; MIC (MRSA-2; MRSA-2, 200 μM copper(II), read-out: MIC with Cu^2+): > 100 µM; MIC (MRSA-2; MRSA-2, 1 mM Tiron, read-out: MIC with Tiron): 0.2 µM; MIC (MRSA-2; MRSA-2, no additive (Table 9), read-out: MIC): 3.13 µM; MIC, MRSE 35984 ([4]; Table 7): 0.30^a μM; MIC (S. epidermidis 12228; S. epidermidis 12228, 200 μM CuSO4, read-out: MIC with Cu^2+): 50 µM; MIC (S. epidermidis 12228; S. epidermidis 12228, 1 mM Tiron, read-out: MIC with Tiron): 0.1 µM; MIC (S. epidermidis 12228; S. epidermidis 12228, no additive, read-out: MIC): 0.1 µM; IC50 (HeLa cells): > 100 µM; MIC [6]: 6.25 µM (≈ 2.92 µg/mL); MIC (E. faecium 700221 (VRE); E. faecium 700221, 200 μM CuSO4, read-out: MIC with Cu^2+): 12.5 µM; MIC (E. faecium 700221 (VRE); E. faecium 700221, 1 mM Tiron, read-out: MIC with Tiron): 0.78 µM; MIC (E. faecium 700221 (VRE); E. faecium 700221, no additive, read-out: MIC): 0.78 µM
COc1cccc2nc3cc(Cl)c(Cl)cc3nc12 [Compound 20, 7,8-Dichloro-1-methoxyphenazine]	> 100 µM	> 100 µM	> 100 µM	> 100 µM	–	–	1.5%	> 100 µM	> 100 µM	–	–	–	> 100 µM	> 100 µM	–	–	> 100 µM	> 100 µM	> 100 µM	> 100 µM	–
Oc1cccc2nc3cc(Cl)c(Cl)cc3nc12 [Compound 21]	> 100 µM	> 100 µM	> 100 µM	> 100 µM	–	–	≤1%	> 100 µM	> 100 µM	–	–	–	> 100 µM	> 100 µM	–	–	> 100 µM	> 100 µM	> 100 µM	> 100 µM	–
Oc1c(Br)cc(Br)c2nccnc12 [Compound 25]	12.5 to 25 µM (≈ 3.8 to 7.6 µg/mL)	18.8 µM (≈ 5.71 µg/mL)	25 µM (≈ 7.6 µg/mL)	25 µM (≈ 7.6 µg/mL)	1500 µM (≈ 456 µg/mL)	1500 µM (≈ 456 µg/mL)	1.8%	12.5 to 25 µM (≈ 3.8 to 7.6 µg/mL)	18.8 µM (≈ 5.71 µg/mL)	6.25 µM (≈ 1.9 µg/mL)	–	12.5 µM (≈ 3.8 µg/mL)	100 µM (≈ 30.4 µg/mL)	100 µM (≈ 30.4 µg/mL)	> 100 µM	1.8%	–	12.5 µM (≈ 3.8 µg/mL)	> 100 µM	6.25 µM (≈ 1.9 µg/mL)	–
Cc1nc2c(Br)cc(Br)c(O)c2nc1C [Compound 27]	12.5 µM (≈ 4.15 µg/mL)	12.5 µM (≈ 4.15 µg/mL)	–	–	125 µM (≈ 41.5 µg/mL)	125 µM (≈ 41.5 µg/mL)	≤1%	–	–	–	–	6.25 µM (≈ 2.07 µg/mL)	25 µM (≈ 8.3 µg/mL)	25 µM (≈ 8.3 µg/mL)	–	≤1%	> 100 µM	> 100 µM	> 100 µM	> 100 µM	–
